Measured values as given in patent US20160022810A1, “Method for Treating Cancers by Alternating Immunotherapeutics and Directly Oncolytic Therapeutics” (priority 2014, published 2016).

Experiments:
4T1 cells = test: survival with CATS alternating with cyclophosphamide (FIG. 10); format: in vivo, mice; details: cyclophosphamide alone 80 mg/kg ip, two boluses over 48 hours from Day 20, then weekly
Protocol: This Kaplan-Meier graph plots survival of three groups of mice (10/cohort) implanted with 1×10^4 4T1 cells on Day 0 and initiated to treatment on Day 20 with two bolus doses over the first 48 hours, and thereafter once weekly of either placebo (blue, 50 ng IV), cyclophosphamide (Cy, orange, 80 mg/kg ip) or alternating therapy (CATS/Cy, green, 50 ng IV CATS™ boluses or every other week, alternating every other week with Cy 80 mg/kg). In this trial 100% of mice treated with CATS™ alternating therapy survived 75 days, at which time the trial was terminated.

4T1 breast cancer cells [1] = test: survival with single regimen, cyclophosphamide or CATS (FIG. 8); format: in vivo; details: 80 mg/kg ip weekly from Day 16; no mice survived beyond; control 37 days
Protocol: Thirty mice were orthotopically implanted with 5×10^4 4T1 breast cancer cells in their mammary fat pad on Day 0. On Day 16, mice were randomized into three cohorts of ten mice each to receive weekly doses of either carrier control (Brown line, Placebo, 25 ng iv), cyclophosphamide cytotoxic drug (CD) chemotherapy (Green line, CD, 80 mg/kg ip) or CATS™ immunotherapy (Purple line, 25 ng iv). Kaplan-Meier curves analyzing surviving mice in each cohort show no mice survived beyond 37 days in the control group, or 46 days in the CD group, while 4 of 10 mice were alive at day 62 in the CATS™ treatment group.

4T1 breast cancer cells [2] = test: visible lung metastases, CATS versus paclitaxel (FIG. 7); format: in vivo, BALB/c mice; details: two boluses separated by 2 days; 100 micrograms
From the text: This reflects into a much stronger anti-metastatic activity (FIG. 7) of CATS™ over paclitaxel, that translates to survival benefits. In this study, 40 BALB/c mice were orthotopically implanted in the mammary pad on Day 0 with 1×10^4 4T1 breast cancer cells. When tumor volume approximated 200 mm^3 (on Day 17), mice were randomly distributed into four cohorts of ten mice each. […] Mice were sacrificed when tumor diameter reached 14 mm (Day 30), at which time mice were euthanized, lungs removed, and visible lung metastases were quantitated by a second observer blinded to the treatment protocols. Floating bars depict maximum and minimum number of metastases each cohort, horizontal line indicates mean±SE.

O=P1(N(CCCl)CCCl)NCCCO1 (stereo not drawn) [cyclophosphamide]
survival at Day 40 (4T1 cells): all of the mice receiving cyclophosphamide alone were dead | longest survival (4T1 breast cancer cells [1]): ≤ 46 days

CC(=O)O[C@H]1C(=O)[C@@]2(C)[C@H]([C@H](OC(=O)c3ccccc3)[C@]3(O)C[C@H](OC(=O)[C@H](O)[C@@H](NC(=O)c4ccccc4)c4ccccc4)C(C)=C1C3(C)C)[C@]1(OC(C)=O)CO[C@@H]1C[C@@H]2O [Taxol, paclitaxel]
tolerability of consolidation dosing (4T1 breast cancer cells [2]): toxic
